From article PMC8693659 (RSC Advances, 2021)

Biological target: SYK (Homo sapiens, UniProt P43405)
Experiment: In vitro kinase inhibition assay
Assay type: biochemical
Settings: for remained SYK activities: inhibitor at 5 μM

Compound	IC50 [nM]	remained SYK activities [%]
Cc1coc2c1C(=O)C(=O)c1c-2ccc2c(C)cccc12 [TanI, tanshinone I]	1720	37.0 ± 2.3
Cc1coc2c1C(=O)C(=O)c1c-2ccc2c1CCCC2(C)C [TanIIA, tanshinoneIIA]	3200	44.7 ± 3.3
